Laboratory results taken from patent US20250101032A1, “EXATECAN DERIVATIVES AND ANTIBODY-DRUG CONJUGATES THEREOF” (priority 2021, published 2025).
Converted amounts (≈) assume the structure as drawn. Like-named read-outs stand apart in the source and are kept apart here.

Columns and labels:
[1] = tested on: SKBR3; assay: In vitro cytotoxicity assay (CellTiter-Glo), SKBR3; type: cell-based, Human; conditions: read-out: Cytotoxicity IC50
Procedure: (§1) Human tumor cell lines, SK-BR-3, NCI-H292, HT-29, MCF-7, NCI-N87, and FaDu were obtained from ATCC. NCI-H292, HT-29, MCF-7, and NCI-N87 cells were cultured in RPMI-1640 media (Gibco, Life Technologies) supplemented with 10% v/v heat inactivated FBS (Corning), FaDu cells were maintained in DMEM media (Gibco, Life Technologies) supplemented with 10% v/v heat inactivated FBS (Corning). SK-BR-3 cells were maintained in McCoys 5A medium (Gibco, Life Technologies) supplemented with 10% […] heat inactivated FBS (Corning) at 37° C. in a humidified incubator containing 5% CO2.
(§2) Lyophilized compounds were dissolved in 100% dry DMSO, aliquots frozen and stored at −80° C. Concentration and purity of compound stock solutions in DMSO were determined by RP-HPLC Agilent 1100 platform with 1200 DAD and SofTA ELSD detectors, and the Agilent 6150 MS system (UV/VIS, ELSD purity and MS compound identity confirmation). Shimadzu 3.0 mm×30 mm XR ODS 2.2 μm column was run at 50° C., 1.5 mL/min. Solvent A: 0.1% Formic acid in water, Solvent B: 0.08% Formic acid in methanol-Gradient: 5%-100% B in 3.0 min, 100% solvent B for 0.3 min. Concentration of compounds in 100% DMSO determined by ELS ranged from 1-6 mM.
(§3) Cells were plated in 96-well white flat-bottomed plates (Corning) at 2.0×10^3 cells per well in 100 μL culture medium. After incubation for 24 hours, test compounds were added at a range of concentrations as ten point serial dilution as duplicates or triplicates. Following further incubation for 6 days 37° C., 5% CO2, cell viability was assessed with the use of a CellTiter-Glo Luminescent Cell Viability Assay (Promega). Luminescence was measured using the GloMax instrument (Promega). […] For a subset of payloads, each treatment was independently repeated two to eight times, and IC50 values were averaged. […] Standard deviation (stdev) is shown as (N/A) for treatment performed once.

[2] = physchem; conditions: 25 °C, pH 7.4, aqueous buffer, kinetic from dmso stock
Procedure: In-vitro kinetic solubilities of the compounds in PBS pH 7.4 buffer at 25° C. were determined by diluting compounds from 100% dimethyl sulfoxide (DMSO) into PBS buffer and measuring absorbance at 490, 590 and 650 nm. Stock concentrations in 100% DMSO were provided at 1-6 mM in 100% DMSO. Kinetic solubilities were determined by diluting test compounds from 100% DMSO into PBS pH 7.4 buffer, as duplicate, 10 point 2-fold serial dilution starting at 100× dilution of stock DMS solution into PBS buffer in a clear, flat bottom polystyrene assay plates. Total assay volume was 200 microliters. Solutions were mixed by plate shaking, incubated for 30 m at 25° C., and absorbance was read at 490, 590 and 650 nm. […] in PBS buffer was used as a blank. For each test compound, average optical density (GD) at each concentration was determined by averaging the blank corrected sum of absorption at 490 nm, 590 nm and 650 nm, over duplicate measurements. Turbidity threshold optical density value was set as a sum of mean plus two standard deviations of the mean of absorbances at 490, 590 and 650 nm for 1% (v/v) DMSO in PBS pH 7.4 buffer. Highest soluble concentration (micromolar) corresponded to the highest concentration at which average optical density was below optical density value set for turbidity threshold (Table 4). Amiodarone and propranolol were used as low and high solubility controls respectively.

[3] = tested on: FaDu; assay: In vitro cytotoxicity assay (CellTiter-Glo), FaDu; type: cell-based, Human; conditions: read-out: Cytotoxicity IC50
Procedure: as §1, §2, §3

[4] = tested on: HT29; assay: In vitro cytotoxicity assay (CellTiter-Glo), HT29; type: cell-based, Human; conditions: read-out: Cytotoxicity IC50
Procedure: as §1, §2, §3

[5] = tested on: NCI-N87; assay: In vitro cytotoxicity assay (CellTiter-Glo), NCI-N87; type: cell-based, Human; conditions: read-out: Cytotoxicity IC50
Procedure: as §1, §2, §3

[6] = tested on: SKOV3; assay: In vitro cytotoxicity assay (CellTiter-Glo), SKOV3; type: cell-based; conditions: read-out: Cytotoxicity IC50
Procedure: (§4) Lyophilized compounds were dissolved in 100% dry DMSO, aliquots frozen and stored at −80° C. […] Shimadzu 3.0 mm×30 mm XR ODS 2.2 μm column was run at 50° C., 1.5 mL/min. Solvent A: 0.1% Formic acid in water, Solvent B: 0.08% Formic acid in methanol-Gradient: 5%-100% B in 3.0 min, 100% solvent B for 0.3 min.
as §3

[7] = tested on: NCI-H292; assay: In vitro cytotoxicity assay (CellTiter-Glo), NCI-H292; type: cell-based, Human; conditions: read-out: Cytotoxicity IC50
Procedure: as §1, §2, §3

[8] = tested on: MCF7; assay: In vitro cytotoxicity assay (CellTiter-Glo), MCF7; type: cell-based, Human; conditions: read-out: Cytotoxicity IC50
Procedure: as §1, §2, §3

[9] = tested on: BXPC3; assay: In vitro cytotoxicity assay (CellTiter-Glo), BXPC3; type: cell-based; conditions: read-out: Cytotoxicity IC50
Procedure: as §4, §3

| Compound | IC50 ([1]; Homo sapiens, SK-BR-3, 144 h) [nM] | solubility at 30 min [2] [µM] | IC50 ([3]; Homo sapiens, FaDu, 144 h) [nM] | IC50 ([4]; Homo sapiens, HT-29, 144 h) [nM] | IC50 ([5]; Homo sapiens, NCI-N87, 144 h) [nM] | IC50 ([6]; Homo sapiens, SK-OV-3, 144 h) [nM] | IC50 ([7]; Homo sapiens, NCI-H292, 144 h) [nM] | IC50 ([8]; Homo sapiens, MCF7, 144 h) [nM] | IC50 ([9]; Homo sapiens, BXPC-3, 144 h) [nM] | IC50 ([1]; SKBR3 cells, 6 days incubation, mean of IC50 values) [nM] | IC50 ([3]; FaDu cells, 6 days incubation, mean of IC50 values) [nM] | IC50 ([4]; HT29 cells, 6 days incubation, mean of IC50 values) [nM] | IC50 ([5]; NCI-N87 cells, 6 days incubation, mean of IC50 values) [nM] | IC50 ([6]; SKOV3 cells, 6 days incubation, mean of IC50 values) [nM] | IC50 ([7]; NCI-H292 cells, 6 days incubation, mean of IC50 values) [nM] | IC50 ([8]; MCF7 cells, 6 days incubation, mean of IC50 values) [nM] | IC50 ([9]; BXPC3 cells, 6 days incubation, mean of IC50 values) [nM] |
| --- | --- | --- | --- | --- | --- | --- | --- | --- | --- | --- | --- | --- | --- | --- | --- | --- | --- |
| CC[C@@]1(O)C(=O)OCc2c1cc1n(c2=O)Cc2c-1nc1cc(F)c(C)c3c1c2[C@@H](NC(=O)[C@@H]1C[C@H]1CO)CC3 (single isomer, unassigned) [Compound 111-A] | 6 | 23 (≈ 12.3 µg/mL) | 1.9 | 34.4 | 13.1 | 24.5 | 18 | 16.7 | 5.6 | – | – | – | – | – | – | – | – |
| CC[C@@]1(O)C(=O)OCc2c1cc1n(c2=O)Cc2c-1nc1cc(F)c(C)c3c1c2[C@@H](Nc1c(NCCO)c(=O)c1=O)CC3 [Compound 2] | 75.4 | 15 (≈ 8.62 µg/mL) | 23.4 | 180 | 111 | 124 | 96 | 41.4 | 29.8 | – | – | – | – | – | – | – | – |
| CC[C@@]1(O)C(=O)OCc2c1cc1n(c2=O)Cc2c-1nc1cc(F)c(C)c3c1c2[C@@H](NC(=O)CC(=O)NCCO)CC3 [Compound 12] | 30.5 | 17 (≈ 9.6 µg/mL) | 16.4 | 318 | 92 | 151 | 68.6 | 43.9 | 45.6 | – | – | – | – | – | – | – | – |
| CC[C@@]1(O)C(=O)OCc2c1cc1n(c2=O)Cc2c-1nc1cc(F)c(C)c3c1c2[C@@H](NC(=O)CCC(=O)NCCO)CC3 [Compound 16] | 166 | 22 (≈ 12.7 µg/mL) | 72 | 1140 | 736 | 341 | 290 | 140 | 149 | – | – | – | – | – | – | – | – |
| CC[C@@]1(O)C(=O)OCc2c1cc1n(c2=O)Cc2c-1nc1cc(F)c(C)c3c1c2[C@@H](Nc1c(NC(CO)(CO)CO)c(=O)c1=O)CC3 [Compound 18] | 65.7 | 13 (≈ 8.25 µg/mL) | 42.9 | 179 | 158 | 167 | 82.1 | 40.7 | 44.9 | – | – | – | – | – | – | – | – |
| CC[C@@]1(O)C(=O)OCc2c1cc1n(c2=O)Cc2c-1nc1cc(F)c(C)c3c1c2[C@@H](NC(=O)OCCO)CC3 [Compound 22] | 1.2 | 23 (≈ 12 µg/mL) | 0.7 | 5.7 | 2.6 | 1.9 | 2.7 | 2.3 | 0.7 | – | – | – | – | – | – | – | – |
| CC[C@@]1(O)C(=O)OCc2c1cc1n(c2=O)Cc2c-1nc1cc(F)c(C)c3c1c2[C@@H](NC(=O)NCCO)CC3 [Compound 42] | 5.2 | 8 (≈ 4.18 µg/mL) | 2.9 | 10.2 | 12 | 19.5 | 2.4 | 11.8 | 5.6 | – | – | – | – | – | – | – | – |
| CC[C@@]1(O)C(=O)OCc2c1cc1n(c2=O)Cc2c-1nc1cc(F)c(C)c3c1c2[C@@H](NC(=O)NC(CO)(CO)CO)CC3 [Compound 48] | 12.6 | 28 (≈ 16.3 µg/mL) | 2.8 | 63.6 | 43 | 77.8 | 27.1 | 11.8 | 20.3 | – | – | – | – | – | – | – | – |
| CC[C@@]1(O)C(=O)OCc2c1cc1n(c2=O)Cc2c-1nc1cc(F)c(C)c3c1c2[C@@H](NC(=O)c1cn(CCO)nn1)CC3 [Compound 52] | 2.5 | 25 (≈ 14.4 µg/mL) | 4.2 | 23.3 | 10.1 | 12.9 | 6.8 | 5.9 | 3.4 | – | – | – | – | – | – | – | – |
| CC[C@@]1(O)C(=O)OCc2c1cc1n(c2=O)Cc2c-1nc1cc(F)c(C)c3c1c2[C@@H](NC(=O)Cc1cn(CCO)nn1)CC3 [Compound 66] | 7.3 | 21 (≈ 12.4 µg/mL) | 7.9 | 78.1 | 30 | 43.3 | 24.7 | 23.9 | 9.8 | – | – | – | – | – | – | – | – |
| CC[C@@]1(O)C(=O)OCc2c1cc1n(c2=O)Cc2c-1nc1cc(F)c(C)c3c1c2[C@@H](NC(=O)C1OC(O)C(O)C1O)CC3 (stereo partly shown) [Compound 100] | 36 | 29 (≈ 16.9 µg/mL) | 7 | 93.4 | 78.6 | 90.5 | 228 | 28.8 | 26.9 | – | – | – | – | – | – | – | – |
| CC[C@@]1(O)C(=O)OCc2c1cc1n(c2=O)Cc2c-1nc1cc(F)c(C)c3c1c2[C@@H](NC(=O)c1ccc(CO)o1)CC3 [Compound 103] | 6.9 | 7 (≈ 3.92 µg/mL) | 1.5 | 14.4 | 17.2 | 26.5 | 6 | 4.6 | 6.4 | – | – | – | – | – | – | – | – |
| CC[C@@]1(O)C(=O)OCc2c1cc1n(c2=O)Cc2c-1nc1cc(F)c(C)c3c1c2[C@@H](NCCO)CC3 [Compound 105] | 0.9 | 25 (≈ 12 µg/mL) | 1.3 | 2.1 | 1.6 | 1.8 | 1.7 | 1.4 | 0.6 | – | – | – | – | – | – | – | – |
| CC[C@@]1(O)C(=O)OCc2c1cc1n(c2=O)Cc2c-1nc1cc(F)c(C)c3c1c2[C@@H](NCc1cn(CCO)nn1)CC3 [Compound 108] | 2.9 | 10 (≈ 5.61 µg/mL) | 2.4 | 13.2 | 8.3 | 6.6 | 8.1 | 4.4 | 2.3 | – | – | – | – | – | – | – | – |
| CC[C@@]1(O)C(=O)OCc2c1cc1n(c2=S)Cc2c-1nc1cc(F)c(C)c3c1c2[C@@H](NC(=S)CO)CC3 [Compound 148] | 0.3 | 3 (≈ 1.58 µg/mL) | – | 0.9 | 0.2 | 0.2 | 1.1 | 0.1 | 0.1 | – | – | – | – | – | – | – | – |
| SN-38 | – | – | – | – | – | – | – | – | – | 1.8 | 2.2 | 5.1 | 4.2 | 3.2 | 2.5 | 4.3 | 0.5 |
